Data published in PubChem BioAssay (NCI).
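Test compounds were applied to cells in 96-well plates for 48 hours at 5 doses. TGI is the concentration that stops growth completely.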

How the values were obtained:
Experiment in all cases: inhibition of tumour cell growth, NCI panel, 48 h
[1] = test system: PC-3 prostate
[2] = test system: MCF7 breast
[3] = test system: COLO 205 colon
[4] = test system: HOP-62 NSCLC
[5] = test system: NCI-H522 lung
[6] = test system: UACC-62 melanoma
[7] = test system: HT29 colon
[8] = test system: NCI-H23 lung
[9] = test system: MALME-3M melanoma
[10] = test system: RPMI-8226 leukemia
[11] = test system: M14 melanoma
[12] = test system: K-562 leukemia
[13] = test system: SK-OV-3 ovarian
[14] = test system: MDA-MB-231 breast
[15] = test system: SK-MEL-2 melanoma
[16] = test system: T-47D breast
[17] = test system: RXF 393 renal
[18] = test system: SN12C renal
[19] = test system: EKVX NSCLC
[20] = test system: MDA-N
[21] = test system: A549 NSCLC
[22] = test system: NCI-H226 lung
[23] = test system: SF-295 CNS
[24] = test system: SF-539 CNS
[25] = test system: SNB-19 CNS
[26] = test system: HCT-116 colon
[27] = test system: IGROV1 ovarian
[28] = test system: SF-268 CNS
[29] = test system: OVCAR-3 ovarian
[30] = test system: BT-549 breast
[31] = test system: CAKI-1 renal
[32] = test system: 786-0 renal
[33] = test system: HCT-15 colon
[34] = test system: TK-10 renal
[35] = test system: OVCAR-8 ovarian
[36] = test system: SR leukemia
[37] = test system: UACC-257 melanoma
[38] = test system: HCC-2998 colon
[39] = test system: MOLT-4 leukemia
[40] = test system: ACHN renal
[41] = test system: UO-31 renal
[42] = test system: LOX IMVI melanoma
[43] = test system: SK-MEL-5 melanoma
[44] = test system: MDA-MB-435
[45] = test system: KM12 colon
[46] = test system: HOP-92 NSCLC
[47] = test system: NCI-H460 lung
[48] = test system: DU-145 prostate
[49] = test system: SW-620 colon
[50] = test system: CCRF-CEM leukemia
[51] = test system: U251 CNS
[52] = test system: OVCAR-4 ovarian
[53] = test system: A498 renal
[54] = test system: SNB-75 CNS
[55] = test system: OVCAR-5 ovarian
[56] = test system: NCI/ADR-RES ovarian
[57] = test system: HL-60(TB) leukemia
[58] = test system: HS 578T breast
[59] = test system: SK-MEL-28 melanoma

SMILES: O=C(NCCCl)N(O)C(=O)Nc1ccccc1
- TGI [1]: > 100 µM
- TGI [2]: > 100 µM
- TGI [3]: > 100 µM
- TGI [4]: > 100 µM
- TGI [5]: > 100 µM
- TGI [6]: > 100 µM
- TGI [7]: > 100 µM
- TGI [8]: > 100 µM
- TGI [9]: > 100 µM
- TGI [10]: > 100 µM
- TGI [11]: > 100 µM
- TGI [12]: > 100 µM
- TGI [13]: > 100 µM
- TGI [14]: > 100 µM
- TGI [15]: > 100 µM
- TGI [16]: > 100 µM
- TGI [17]: > 100 µM
- TGI [18]: > 100 µM
- TGI [19]: > 100 µM
- TGI [20]: > 100 µM
- TGI [21]: > 100 µM
- TGI [22]: > 100 µM
- TGI [23]: > 100 µM
- TGI [24]: > 100 µM
- TGI [25]: > 100 µM
- TGI [26]: > 100 µM
- TGI [27]: > 100 µM
- TGI [28]: > 100 µM
- TGI [29]: > 100 µM
- TGI [30]: > 100 µM
- TGI [31]: > 100 µM
- TGI [32]: > 100 µM
- TGI [33]: > 100 µM
- TGI [34]: > 100 µM
- TGI [35]: > 100 µM
- TGI [36]: > 100 µM
- TGI [37]: > 100 µM
- TGI [38]: > 100 µM
- TGI [39]: > 100 µM
- TGI [40]: > 100 µM
- TGI [41]: > 100 µM
- TGI [42]: > 100 µM
- TGI [43]: > 100 µM
- TGI [44]: > 100 µM
- TGI [45]: > 100 µM
- TGI [46]: > 100 µM
- TGI [47]: > 100 µM
- TGI [48]: > 100 µM
- TGI [49]: > 100 µM
- TGI [50]: > 100 µM
- TGI [51]: > 100 µM
- TGI [52]: > 100 µM
- TGI [53]: > 100 µM
- TGI [54]: > 100 µM
- TGI [55]: > 100 µM
- TGI [56]: > 100 µM
- TGI [57]: > 100 µM
- TGI [58]: > 100 µM

SMILES: Ic1cccc(/C=C/CN2CCN(CCOC(c3ccccc3)c3ccccc3)CC2)c1
- TGI [1]: 66.3 µM
- TGI [2]: 30.5 µM
- TGI [3]: 65.1 µM
- TGI [4]: 32.6 µM
- TGI [5]: 36.8 µM
- TGI [6]: 37.4 µM
- TGI [7]: 30.3 µM
- TGI [8]: 40 µM
- TGI [9]: 39.3 µM
- TGI [10]: 14.3 µM
- TGI [11]: 38.8 µM
- TGI [12]: 23.9 µM
- TGI [13]: 63.4 µM
- TGI [14]: 32.4 µM
- TGI [59]: 50.1 µM
- TGI [15]: 38.3 µM
- TGI [16]: 33.3 µM
- TGI [17]: 27.5 µM
- TGI [18]: 29.6 µM
- TGI [19]: 41.4 µM
- TGI [20]: 41.9 µM
- TGI [21]: 45 µM
- TGI [22]: 40.2 µM
- TGI [23]: 33.1 µM
- TGI [24]: 39.8 µM
- TGI [25]: 34.9 µM
- TGI [26]: 26.8 µM
- TGI [27]: 40.9 µM
- TGI [28]: > 100 µM
- TGI [29]: 32.4 µM
- TGI [30]: 31.4 µM
- TGI [31]: 41.4 µM
- TGI [32]: 33.7 µM
- TGI [33]: 34.4 µM
- TGI [34]: 31.6 µM
- TGI [35]: 30 µM
- TGI [36]: 28.9 µM
- TGI [37]: 31.4 µM
- TGI [38]: 20.4 µM
- TGI [39]: 35.9 µM
- TGI [40]: > 100 µM
- TGI [41]: 29 µM
- TGI [42]: 26.8 µM
- TGI [43]: 32.2 µM
- TGI [44]: 30.4 µM
- TGI [45]: 31 µM
- TGI [46]: 29.4 µM
- TGI [47]: 32.4 µM
- TGI [48]: 28.3 µM
- TGI [49]: > 100 µM
- TGI [50]: 32.4 µM
- TGI [51]: 29.7 µM
- TGI [52]: 51.1 µM
- TGI [53]: 31.7 µM
- TGI [54]: 37.6 µM
- TGI [55]: 36.9 µM
- TGI [56]: 34.7 µM
- TGI [57]: 30.9 µM
- TGI [58]: 76.2 µM

SMILES: CC1CC[C@@]2(OC1)OC1C[C@H]3[C@@H]4CC[C@H]5CC(OC6OC(CO)C(O)C(OC7OC(CO)C(OC8OC(CO)C(O)C(OC9OC(CO)C(O)C(O)C9O)C8OC8OC(CO)C(O)C(O)C8O)C(O)C7O)C6O)[C@H](O)CC5(C)[C@H]4CCC3(C)C1[C@@H]2C (stereo not given in full)
- TGI [1]: 6.66 µM
- TGI [2]: 5.43 µM
- TGI [3]: 6.04 µM
- TGI [4]: 11.3 µM
- TGI [5]: 5.35 µM
- TGI [6]: 16.6 µM
- TGI [7]: 11.1 µM
- TGI [8]: 12.7 µM
- TGI [9]: 15.1 µM
- TGI [10]: 12.9 µM
- TGI [11]: 17.6 µM
- TGI [12]: 12.4 µM
- TGI [13]: 14.1 µM
- TGI [14]: 5.87 µM
- TGI [59]: 14.5 µM
- TGI [15]: 9.78 µM
- TGI [16]: 4.58 µM
- TGI [17]: 3.27 µM
- TGI [18]: 9.03 µM
- TGI [19]: 10.8 µM
- TGI [20]: 13.8 µM
- TGI [21]: 21.6 µM
- TGI [22]: 13.3 µM
- TGI [23]: 9.39 µM
- TGI [24]: 6.76 µM
- TGI [25]: 9.47 µM
- TGI [26]: 11.5 µM
- TGI [27]: 4.59 µM
- TGI [28]: 11.3 µM
- TGI [29]: 1.93 µM
- TGI [30]: 10.5 µM
- TGI [31]: 11.3 µM
- TGI [32]: 6.76 µM
- TGI [33]: 19.3 µM
- TGI [34]: 11.8 µM
- TGI [35]: 6.67 µM
- TGI [36]: 2.98 µM
- TGI [37]: 16.9 µM
- TGI [38]: 4.71 µM
- TGI [39]: 16.4 µM
- TGI [40]: 7.4 µM
- TGI [41]: 6.9 µM
- TGI [42]: 9.05 µM
- TGI [43]: 13.6 µM
- TGI [44]: 14.6 µM
- TGI [45]: 12.2 µM
- TGI [46]: 12.1 µM
- TGI [47]: 15.5 µM
- TGI [48]: 12.1 µM
- TGI [49]: 8.32 µM
- TGI [50]: 10.2 µM
- TGI [51]: 9.43 µM
- TGI [52]: 9.55 µM
- TGI [53]: 3.16 µM
- TGI [54]: 10.9 µM
- TGI [55]: 12.9 µM
- TGI [56]: 12.5 µM
- TGI [57]: 9.3 µM
- TGI [58]: 6.16 µM

SMILES: c1ccc([P+](CC[P+](c2ccccc2)(c2ccccc2)c2ccccc2)(c2ccccc2)c2ccccc2)cc1
- TGI [1]: 60.6 µM
- TGI [2]: > 100 µM
- TGI [3]: 24.9 µM
- TGI [4]: > 100 µM
- TGI [5]: > 79.5 µM
- TGI [6]: > 100 µM
- TGI [7]: > 100 µM
- TGI [8]: > 100 µM
- TGI [9]: > 63.4 µM
- TGI [10]: 7.79 µM
- TGI [11]: > 100 µM
- TGI [12]: > 100 µM
- TGI [13]: > 100 µM
- TGI [14]: 98.4 µM
- TGI [59]: 38.4 µM
- TGI [15]: 43.6 µM
- TGI [16]: > 58.8 µM
- TGI [17]: > 83.4 µM
- TGI [18]: > 100 µM
- TGI [19]: > 100 µM
- TGI [20]: > 61.8 µM
- TGI [21]: > 100 µM
- TGI [22]: > 100 µM
- TGI [23]: > 100 µM
- TGI [24]: > 44.5 µM
- TGI [25]: > 100 µM
- TGI [26]: > 100 µM
- TGI [27]: > 100 µM
- TGI [28]: > 100 µM
- TGI [29]: > 59.7 µM
- TGI [30]: > 100 µM
- TGI [31]: > 100 µM
- TGI [32]: > 100 µM
- TGI [33]: > 100 µM
- TGI [34]: > 67.3 µM
- TGI [35]: > 100 µM
- TGI [36]: > 79.8 µM
- TGI [37]: 11 µM
- TGI [38]: 44.5 µM
- TGI [39]: > 100 µM
- TGI [40]: > 100 µM
- TGI [41]: > 100 µM
- TGI [42]: > 100 µM
- TGI [43]: 39.6 µM
- TGI [44]: 45.5 µM
- TGI [45]: > 100 µM
- TGI [46]: > 92.3 µM
- TGI [47]: 35 µM
- TGI [48]: > 100 µM
- TGI [49]: > 100 µM
- TGI [50]: 2.95 µM
- TGI [51]: 21 µM
- TGI [52]: > 100 µM
- TGI [53]: > 100 µM
- TGI [54]: > 76.5 µM
- TGI [55]: > 100 µM
- TGI [56]: > 100 µM
- TGI [57]: 55.2 µM
- TGI [58]: > 100 µM
